{"source": "patent US5196412A", "about": "“Gallium compounds” (Johnson Matthey, Inc., priority 1991, dated 1993)", "key": {"[1]": {"assay": "oral absorption of gallium in rats (4-hour plasma gallium AUC)", "assay_type": "in vivo, Male Sprague Dawley rats", "conditions": "rat, 0.067 mmol/kg, 0-4 hours, absorption from the intestine", "protocol": "According to the invention, compounds were tested for oral absorption in rats. Male Sprague Dawley rats weighing 150-225 g were purchased from Harlan Sprague Dawley, Inc. (Indianapolis, Ind.). The gallium standard solution is from Aldrich Chemical Co (Milwaukee, Wis.). Metofane is a product from Pitman-Moore (Mundelein, Ill.), and all other chemicals are commercially available. Gallium test compounds were dissolved in 18 megaohm water (Millipore, Bedford, Mass.) or suspended in 0.5% carboxymethyl cellulose in 5% ethanol, if the compound was not water soluble. The suspensions were sonicated at room temperature for about 5 minutes. […]\nSutures were made with 3-4 stitches with 3-0 silk surgical thread (Ethicon Inc, Somerville, N.J.). […] The blood was placed in 1 ml Eppendorf tubes precoated with 50 μl heparin (1,000 U/ml and air dried, so there was no blood dilution involved. The plasma was recovered after the blood was centrifuged for 2 minutes in a Fischer Micro-centrifuge, Model 235B, and its gallium content measured by a Varian Flameless Atomic Absorption Spectrometer. The standard curve was linear in the gallium concentrations of 5-100 ng/ml. The data under the […] versus time curve (AUC) for 0-4 hours was estimated. […]"}, "[2]": {"conditions": "pH 4.5-7; cited from earlier work"}, "[3]": {"test_system": "gastro-intestinal tract", "conditions": "pH 4.5-7; cited from earlier work"}, "[4]": {"test_system": "cancer-associated hypercalcemia", "conditions": "cited from earlier work"}, "[5]": {"test_system": "bone", "conditions": "cited from earlier work"}, "[6]": {"test_system": "renal toxicity", "conditions": "cited from earlier work"}}, "note": "Where two headings read alike, the source gives them in different places."}
{"smiles": "O=[N+]([O-])[O-].O=[N+]([O-])[O-].O=[N+]([O-])[O-].[Ga+3]", "note": "[Ga(NO3)3, gallium nitrate]", "values": [{"measurement": "4-hour plasma gallium AUC", "setting": "[1]", "value": "897 (ng//ml)h"}]}
{"smiles": "[Ga+3]", "note": "[gallium(III) aquo-ion]", "values": [{"measurement": "hydrolysis", "setting": "[2]", "value": "extensively hydrolysed to insoluble hydroxides"}, {"measurement": "absorption", "setting": "[3]", "value": "very poorly absorbed"}]}
{"smiles": "[Ga]", "note": "[gallium]", "values": [{"measurement": "serum calcium", "setting": "[4]; patients with hypercalcemia of malignancy", "value": "reduce serum calcium"}, {"measurement": "efficacy in cancer-associated hypercalcemia", "setting": "[4]; seven day continuous i.v. infusion", "value": "effective"}, {"measurement": "bone strength", "setting": "[5]", "value": "increases bone strength"}, {"measurement": "resorption of calcium from bone", "setting": "[5]", "value": "inhibiting the resorption of calcium from bone"}, {"measurement": "renal toxicity", "setting": "[6]; i.v. bolus", "value": "renal toxicity is dose-limiting"}, {"measurement": "renal toxicity", "setting": "[6]; seven day continuous i.v. infusion, cancer-associated hypercalcemia", "value": "showed no renal toxicity"}]}
